According to ChEMBL document CHEMBL1201862, “PubChem BioAssay data set” (2004):
Activity calls are given as the source filed them.

Experiments:
X-box-binding protein 1 = X-box-binding protein 1 (Homo sapiens, UniProt P17861); assay type: functional, Cricetulus griseus;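 further: confirmatory dose-response counter-screen serving a CHOP assay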
Coagulation factor XII = molecular target: T1, Coagulation factor XII (Homo sapiens, UniProt P00748); assay: FXIIa inhibitor potency, concentration-response, biochemical (AID 716); assay type: functional
T1 sequence (P00748 whole entry): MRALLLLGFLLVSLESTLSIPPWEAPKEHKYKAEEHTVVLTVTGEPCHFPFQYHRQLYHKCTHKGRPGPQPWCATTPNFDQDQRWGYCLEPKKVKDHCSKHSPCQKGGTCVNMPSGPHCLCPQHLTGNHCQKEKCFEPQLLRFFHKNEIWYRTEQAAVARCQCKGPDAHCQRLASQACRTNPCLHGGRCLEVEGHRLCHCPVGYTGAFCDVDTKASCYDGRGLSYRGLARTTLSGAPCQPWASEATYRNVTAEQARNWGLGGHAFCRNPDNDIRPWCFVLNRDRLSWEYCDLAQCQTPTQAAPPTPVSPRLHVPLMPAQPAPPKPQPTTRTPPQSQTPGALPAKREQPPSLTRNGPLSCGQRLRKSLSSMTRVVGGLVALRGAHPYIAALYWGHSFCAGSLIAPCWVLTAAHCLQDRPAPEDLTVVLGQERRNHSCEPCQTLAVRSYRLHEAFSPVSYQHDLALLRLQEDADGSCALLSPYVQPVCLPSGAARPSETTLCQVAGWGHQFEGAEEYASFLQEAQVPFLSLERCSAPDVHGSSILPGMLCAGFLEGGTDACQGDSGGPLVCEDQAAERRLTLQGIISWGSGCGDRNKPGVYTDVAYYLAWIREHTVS

HeLa = assay: HeLa cell cytotoxicity, dose response, cytotoxicity control, 24 h, cherry-picked samples (AID 504726); assay type: functional, cell-based; settings: Homo sapiens;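 further: potency for cytotoxicity as loss of luminescence signal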
[1] = growth suppression of PTEN-null colon cells, dose response, cell-based, HCT116 PTEN knockout (AID 1047); assay type: functional;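 further: HCT116 colon tumor cells with PTEN knocked out; cells exposed to compound for 60 hours before readout; potency for loss of cell viability measured by luminescence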
[2] = inhibitors of intracellular T. cruzi replication, confirmation, NIH3T3 host cells, beta-gal luminescence (AID 2044); assay type: functional, cell-based;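 further: intracellular parasites grown in NIH/3T3 mouse fibroblasts as host cells; luminescent beta-galactosidase reporter signal from transgenic T. cruzi replicating inside host cells; inhibitors lower the luminescence signal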
[3] = growth suppression of beta-catenin-knockout colon cells, dose response, cell-based, HCT116, human colon tumor (AID 1045); assay type: functional;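 further: HCT116 colon tumor cells with beta catenin knocked out; cells exposed to compound for 60 hours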
[4] = cytotoxicity toward NIH3T3 fibroblasts, dose response, counter-screen, cell-based, ATP luminescence, mouse fibroblasts (AID 2010); assay type: functional;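 further: cells exposed to compound for about 90 hours before reading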
[5] = molecular target: G-protein coupled receptor 35 (Homo sapiens, UniProt Q9HC97); assay: GPR35 antagonists blocking zaprinast-driven arrestin recruitment, primary screen, imaging, U2OS, beta-arrestin-GFP, zaprinast agonist (AID 2058); assay type: functional;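 further: antagonist potency meaning inhibition of agonist-induced arrestin redistribution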
G-protein coupled receptor 35, sequence (Q9HC97 whole entry): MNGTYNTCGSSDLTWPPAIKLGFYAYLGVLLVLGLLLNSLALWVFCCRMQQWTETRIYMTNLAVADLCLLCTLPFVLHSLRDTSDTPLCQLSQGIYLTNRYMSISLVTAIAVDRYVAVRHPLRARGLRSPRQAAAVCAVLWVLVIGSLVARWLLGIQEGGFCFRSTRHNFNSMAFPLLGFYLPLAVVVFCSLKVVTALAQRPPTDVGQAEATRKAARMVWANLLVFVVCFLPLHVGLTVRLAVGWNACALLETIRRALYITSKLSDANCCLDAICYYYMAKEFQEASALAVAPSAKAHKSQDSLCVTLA

Protein Rev = Protein Rev (Human immunodeficiency virus type 1 group M subtype B (isolate HXB2)(HIV-1), UniProt P04618); assay: inhibitors of Rev binding to RRE RNA, dose response, biochemical, fluorescence polarization, HIV-1 (AID 434976); design: species or system Human immunodeficiency virus 1
Protein Rev, sequence (P04618 whole entry): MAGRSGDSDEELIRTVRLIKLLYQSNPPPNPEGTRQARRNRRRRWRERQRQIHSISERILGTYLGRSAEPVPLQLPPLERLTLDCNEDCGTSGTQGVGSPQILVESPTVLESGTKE

[6] = molecular target: Female germline-specific tumor suppressor gld-1 (Caenorhabditis elegans, UniProt Q17339); assay: inhibitors of GLD-1 binding to TGE RNA, dose response, biochemical, fluorescence polarization, C. elegans (AID 2802);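 further: fluorescence polarization of labeled TGE RNA bound by purified gld-1 protein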
Female germline-specific tumor suppressor gld-1, sequence (Q17339 whole entry): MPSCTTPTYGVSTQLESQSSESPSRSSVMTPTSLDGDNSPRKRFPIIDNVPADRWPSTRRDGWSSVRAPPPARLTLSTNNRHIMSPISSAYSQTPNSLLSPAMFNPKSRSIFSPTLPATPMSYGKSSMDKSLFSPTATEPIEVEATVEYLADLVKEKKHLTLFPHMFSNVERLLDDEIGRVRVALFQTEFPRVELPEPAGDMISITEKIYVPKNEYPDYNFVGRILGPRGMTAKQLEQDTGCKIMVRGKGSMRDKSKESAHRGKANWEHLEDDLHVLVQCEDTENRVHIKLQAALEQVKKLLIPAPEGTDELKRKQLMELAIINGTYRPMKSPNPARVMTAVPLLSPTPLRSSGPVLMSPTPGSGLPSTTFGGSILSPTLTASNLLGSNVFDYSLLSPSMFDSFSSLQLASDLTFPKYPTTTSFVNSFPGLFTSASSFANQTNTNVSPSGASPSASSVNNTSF

[7] = molecular target: DNA dC->dU-editing enzyme APOBEC-3A (Homo sapiens, UniProt P31941); assay: APOBEC3A DNA deaminase inhibitors, dose response, biochemical (AID 504722); assay type: functional
DNA dC->dU-editing enzyme APOBEC-3A, sequence (P31941 whole entry): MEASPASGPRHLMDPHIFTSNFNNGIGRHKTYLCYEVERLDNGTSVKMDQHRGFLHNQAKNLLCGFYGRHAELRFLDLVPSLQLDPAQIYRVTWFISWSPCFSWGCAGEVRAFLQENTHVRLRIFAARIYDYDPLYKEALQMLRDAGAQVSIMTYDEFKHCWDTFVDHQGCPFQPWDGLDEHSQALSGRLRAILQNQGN

[8] = molecular target: DNA dC->dU-editing enzyme APOBEC-3G (Homo sapiens, UniProt Q9HC16); assay: Dose Response confirmation of small molecule APOBEC3G DNA Deaminase Inhibitors via a fluorescence-based single-stranded DNA deaminase assay. [Related pubchem assays (depositor defined):AID493012, AID493028]; assay type: functional
DNA dC->dU-editing enzyme APOBEC-3G, sequence (Q9HC16 whole entry): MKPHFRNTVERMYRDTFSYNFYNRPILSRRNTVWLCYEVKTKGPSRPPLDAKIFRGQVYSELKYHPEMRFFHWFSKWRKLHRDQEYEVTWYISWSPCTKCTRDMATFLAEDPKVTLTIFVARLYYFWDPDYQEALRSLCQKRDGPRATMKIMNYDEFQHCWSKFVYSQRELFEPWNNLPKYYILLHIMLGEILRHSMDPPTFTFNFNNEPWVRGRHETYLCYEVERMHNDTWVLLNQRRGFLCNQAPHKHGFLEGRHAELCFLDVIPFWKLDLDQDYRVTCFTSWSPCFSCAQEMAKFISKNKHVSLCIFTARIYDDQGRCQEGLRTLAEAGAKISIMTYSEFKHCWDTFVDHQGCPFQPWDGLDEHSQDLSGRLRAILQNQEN

X-box-binding protein 1, sequence (P17861 whole entry): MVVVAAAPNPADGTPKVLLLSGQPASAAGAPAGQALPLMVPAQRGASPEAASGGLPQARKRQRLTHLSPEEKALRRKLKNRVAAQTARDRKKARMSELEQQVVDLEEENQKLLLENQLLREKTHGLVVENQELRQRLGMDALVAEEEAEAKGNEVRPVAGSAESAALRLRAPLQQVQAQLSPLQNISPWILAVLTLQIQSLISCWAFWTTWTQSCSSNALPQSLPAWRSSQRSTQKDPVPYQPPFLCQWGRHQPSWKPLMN

For `CCCCCCn1c(SCCC)nc2c1c(=O)[nH]c(=O)n2C`, which “Absolute IC50 (XBP1)” value (X-box-binding protein 1) is on record?
The value was 10 µM.

For `COc1ccc2c(c1)CCc1c(C(=O)NCc3cccnc3)noc1-2`, which IC50 (Coagulation factor XII) is on record?
Its IC50 is 3.76 µM (active).

For `CCN(CCCNC(=O)Cn1cc2c(n1)CCCC2)c1cccc(C)c1`, which AC50 (HeLa) is on record?
The AC50 was > 350 µM (inactive).

Which EC50 [1] does the source give for `CCOc1ccc(NC(=O)C(C)Oc2ccccc2C(=O)Nc2ccc(C)c(Cl)c2)cc1` (configuration not stated) here?
Its EC50 is 17.9 µM (active).

And the EC50 [2]?
The EC50 was 2.06 µM (active).

And the EC50 [3]?
Its EC50 is 19.6 µM (active).

What about the EC50 [4] of the same molecule?
Its EC50 is > 60 µM (not active).

What about the IC50 [5] of the same molecule?
The IC50 was 1.31 µM (active).

For `C=CCNC(=O)/C(C#N)=C/c1ccccc1[N+](=O)[O-]`, which IC50 (Protein Rev) is on record?
Its IC50 is 10.4 µM (not active).

And the IC50 [6]?
The IC50 was 1.1 µM (active).

With `CCc1cc(-c2n[nH]c(=S)n2CC)cs1` as the molecule, how does the IC50 [7] read?
The IC50 was > 100 µM (inactive).

What about the IC50 [8] of the same molecule?
The IC50 was 5.02 µM (active).
